Experimental data published in ChEMBL document CHEMBL1201862, “PubChem BioAssay data set” (2004).
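Each compound was tested at five concentrations against cells in 96-well plates for 48 hours. The concentration for 50% growth inhibition is given as GI50.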 Activity calls are given as the source filed them. Rule as the data show it: active = GI50 up to about 1.1 µM and inactive = higher.

Legend:
Assay in all cases: growth of human tumour cells (NCI), 48 h
SK-OV-3 = test system: SK-OV-3
SK-MEL-5 = test system: SK-MEL-5
UACC-62 = test system: UACC-62
SF-295 = test system: SF-295
SN12C = test system: SN12C
NCI-H522 = test system: NCI-H522
SK-MEL-2 = test system: SK-MEL-2
MOLT-4 = test system: MOLT-4
HCT-15 = test system: HCT-15
SF-268 = test system: SF-268
UACC-257 = test system: UACC-257
Malme-3M = test system: Malme-3M
HOP-92 = test system: HOP-92
SK-MEL-28 = test system: SK-MEL-28
HT-29 = test system: HT-29
OVCAR-4 = test system: OVCAR-4
786-0 = test system: 786-0
NCI-H226 = test system: NCI-H226
ACHN = test system: ACHN

SMILES | GI50 (SK-OV-3) | GI50 (SK-MEL-5) | GI50 (UACC-62) | GI50 (SF-295) | GI50 (SN12C) | GI50 (NCI-H522) | GI50 (SK-MEL-2) | GI50 (MOLT-4) | GI50 (HCT-15) [µM] | GI50 (SF-268) | GI50 (UACC-257) | GI50 (Malme-3M) | GI50 (HOP-92) | GI50 (SK-MEL-28) | GI50 (HT-29) | GI50 (OVCAR-4) | GI50 (786-0) | GI50 (NCI-H226) | GI50 (ACHN)
O=NN(CCF)C(=O)NC1CCSCC1 | > 100 µM (inactive) | > 100 µM (inactive) | > 100 µM (inactive) | > 100 µM (inactive) | > 100 µM (inactive) | > 100 µM (inactive) | > 100 µM (inactive) | > 100 µM (inactive) | > 100 | > 100 µM (inactive) | > 100 µM (inactive) | > 100 µM (inactive) | > 100 µM (inactive) | > 100 µM (inactive) | > 100 µM (inactive) | > 100 µM (inactive) | – | – | –
CC1CC2=Nc3ccccc3NC(c3ccccc3)C2=C(O)O1 (centres undefined) | > 100 µM (inactive) | > 100 µM (inactive) | 93.8 µM (inactive) | – | > 100 µM (inactive) | 47.1 µM (inactive) | > 100 µM (inactive) | > 100 µM (inactive) | > 100 | > 100 µM (inactive) | > 100 µM (inactive) | > 100 µM (inactive) | – | > 100 µM (inactive) | > 100 µM (inactive) | – | > 100 µM (inactive) | > 100 µM (inactive) | > 100 µM (inactive)
Cc1ccccc1NC(=O)CC(=O)N1N=C(N2c3ccccc3Sc3ccccc32)CC1c1ccccc1 (centres undefined) | > 100 µM (inactive) | > 100 µM (inactive) | > 100 µM (inactive) | > 100 µM (inactive) | > 100 µM (inactive) | – | – | > 100 µM (inactive) | > 100 | > 100 µM (inactive) | > 100 µM (inactive) | > 100 µM (inactive) | > 100 µM (inactive) | > 100 µM (inactive) | > 100 µM (inactive) | > 100 µM (inactive) | – | > 100 µM (inactive) | > 100 µM (inactive)
CSc1nc(NC(=O)O)c(N(C(C)=O)C(=O)O)c(=O)n1C | – | > 100 µM (inactive) | > 100 µM (inactive) | > 100 µM (inactive) | > 100 µM (inactive) | – | > 100 µM (inactive) | > 100 µM (inactive) | > 100 | > 100 µM (inactive) | > 100 µM (inactive) | > 100 µM (inactive) | > 100 µM (inactive) | > 100 µM (inactive) | > 100 µM (inactive) | > 100 µM (inactive) | > 100 µM (inactive) | > 100 µM (inactive) | > 100 µM (inactive)
Cc1cc(Cl)ccc1/N=C1/NC(=O)C(CC(=O)Nc2cccc(C)c2C)S1 (centres undefined) | 30.4 µM (inactive) | 20.4 µM (inactive) | 25.9 µM (inactive) | 28 µM (inactive) | 25.9 µM (inactive) | – | 20.8 µM (inactive) | 24.5 µM (inactive) | 28.4 | 26 µM (inactive) | 29.5 µM (inactive) | 24.2 µM (inactive) | 1.41 µM (inactive) | 30.2 µM (inactive) | 37.8 µM (inactive) | 26.7 µM (inactive) | 20.8 µM (inactive) | – | 26 µM (inactive)
CN1C(=O)NC2(O)c3ccccc3C(=O)C12O (centres undefined) | > 100 µM (inactive) | – | > 100 µM (inactive) | > 100 µM (inactive) | – | > 100 µM (inactive) | > 100 µM (inactive) | > 100 µM (inactive) | > 100 | > 100 µM (inactive) | > 100 µM (inactive) | > 100 µM (inactive) | > 100 µM (inactive) | > 100 µM (inactive) | > 100 µM (inactive) | > 100 µM (inactive) | > 100 µM (inactive) | – | –
CCC1=CCN(c2cc(C)ccn2)OC1c1ccc(OC)cc1 (centres undefined) | 48.8 µM (inactive) | 16.9 µM (inactive) | 29.4 µM (inactive) | 22.2 µM (inactive) | 26 µM (inactive) | 16 µM (inactive) | 16.9 µM (inactive) | 26.9 µM (inactive) | 27.3 | 45.1 µM (inactive) | 23.6 µM (inactive) | 27 µM (inactive) | – | 24.1 µM (inactive) | 21.6 µM (inactive) | 34.8 µM (inactive) | 34.8 µM (inactive) | 38.3 µM (inactive) | 33.5 µM (inactive)
CCCCC1=CSC(c2ccccc2)=C(c2ccccc2)S1 | > 100 µM (inactive) | 23.9 µM (inactive) | 40.5 µM (inactive) | 36.5 µM (inactive) | 97.5 µM (inactive) | – | – | 8.97 µM (inactive) | 26.2 | – | – | – | 11.7 µM (inactive) | 63.5 µM (inactive) | 33.6 µM (inactive) | 37.6 µM (inactive) | 87.5 µM (inactive) | > 100 µM (inactive) | –
COC1CCC(OS(C)(=O)=O)CO1 (centres undefined) | > 100 µM (inactive) | – | > 100 µM (inactive) | > 100 µM (inactive) | – | > 100 µM (inactive) | > 100 µM (inactive) | 20.6 µM (inactive) | – | 86.7 µM (inactive) | > 100 µM (inactive) | > 100 µM (inactive) | > 100 µM (inactive) | > 100 µM (inactive) | > 100 µM (inactive) | > 100 µM (inactive) | – | – | > 100 µM (inactive)
COC(=O)/C(C#N)=C1\CCC(O)N1C (centres undefined) | > 100 µM (inactive) | – | > 100 µM (inactive) | > 100 µM (inactive) | > 100 µM (inactive) | > 100 µM (inactive) | > 100 µM (inactive) | > 100 µM (inactive) | – | > 100 µM (inactive) | > 100 µM (inactive) | > 100 µM (inactive) | – | > 100 µM (inactive) | > 100 µM (inactive) | > 100 µM (inactive) | > 100 µM (inactive) | > 100 µM (inactive) | > 100 µM (inactive)
CC1C=CC(=O)C(n2cc(F)c(=O)[nH]c2=O)O1 (centres undefined) | 27.7 µM (inactive) | 17.9 µM (inactive) | 16.2 µM (inactive) | > 10 µM (inactive) | 18.4 µM (inactive) | – | – | 16.5 µM (inactive) | 16.6 | – | 16.4 µM (inactive) | 14.2 µM (inactive) | 17.5 µM (inactive) | 23.4 µM (inactive) | 18.2 µM (inactive) | 18.5 µM (inactive) | 16 µM (inactive) | – | 20 µM (inactive)
C=CCNC1=NC(=O)C(CC(=O)Nc2cccc(Cl)c2)S1 (centres undefined) | > 100 µM (inactive) | > 100 µM (inactive) | > 100 µM (inactive) | > 100 µM (inactive) | > 100 µM (inactive) | > 100 µM (inactive) | > 100 µM (inactive) | > 100 µM (inactive) | > 100 | > 100 µM (inactive) | > 100 µM (inactive) | > 100 µM (inactive) | – | > 100 µM (inactive) | > 100 µM (inactive) | > 100 µM (inactive) | > 100 µM (inactive) | > 100 µM (inactive) | > 100 µM (inactive)
Cc1ccccc1NC(=O)C(=O)C1CN(c2ccccc2)N=C1N (centres undefined) | > 100 µM (inactive) | > 10 µM (inactive) | – | – | > 100 µM (inactive) | > 100 µM (inactive) | – | > 100 µM (inactive) | – | > 100 µM (inactive) | > 100 µM (inactive) | > 100 µM (inactive) | > 100 µM (inactive) | > 100 µM (inactive) | > 100 µM (inactive) | > 100 µM (inactive) | > 100 µM (inactive) | > 100 µM (inactive) | –
CC1Cc2c(N)nc(N3CCOCC3)nc2NC1=O (centres undefined) | > 100 µM (inactive) | > 100 µM (inactive) | > 100 µM (inactive) | > 100 µM (inactive) | > 100 µM (inactive) | > 100 µM (inactive) | > 100 µM (inactive) | > 100 µM (inactive) | > 100 | – | > 100 µM (inactive) | > 100 µM (inactive) | – | > 100 µM (inactive) | > 100 µM (inactive) | – | > 100 µM (inactive) | > 100 µM (inactive) | > 100 µM (inactive)
COc1ccc(NC(=O)CC(=O)n2nc(C)c(/N=N/c3ccccc3C(=O)O)c2C)cc1 | 40.3 µM (inactive) | > 100 µM (inactive) | > 100 µM (inactive) | > 100 µM (inactive) | > 100 µM (inactive) | > 100 µM (inactive) | > 100 µM (inactive) | > 100 µM (inactive) | > 100 | > 100 µM (inactive) | > 100 µM (inactive) | > 100 µM (inactive) | – | > 100 µM (inactive) | > 100 µM (inactive) | > 100 µM (inactive) | 77.3 µM (inactive) | – | –
Cc1ccc(C2=C(c3ccccc3)C(Br)(c3ccc(C)cc3)C(c3ccccc3)=C2c2ccc(C)cc2)cc1 | > 100 µM (inactive) | > 100 µM (inactive) | > 100 µM (inactive) | > 100 µM (inactive) | > 100 µM (inactive) | – | > 100 µM (inactive) | > 100 µM (inactive) | > 100 | > 100 µM (inactive) | > 100 µM (inactive) | > 100 µM (inactive) | > 100 µM (inactive) | > 100 µM (inactive) | – | > 100 µM (inactive) | > 100 µM (inactive) | – | > 100 µM (inactive)
CC(C(=O)C(C)O[Si](c1ccccc1)(c1ccccc1)C(C)(C)C)=P(c1ccccc1)(c1ccccc1)c1ccccc1 (centres undefined) | 2.42 µM (inactive) | 2.75 µM (inactive) | 3.94 µM (inactive) | 3.33 µM (inactive) | 3.77 µM (inactive) | – | 2.5 µM (inactive) | 2.95 µM (inactive) | 5.64 | – | 3.71 µM (inactive) | 3.13 µM (inactive) | 2.21 µM (inactive) | – | 3.08 µM (inactive) | 3.37 µM (inactive) | 4.06 µM (inactive) | 3.3 µM (inactive) | 4.08 µM (inactive)
